Patent US12120996B2, “Induction method for improving yield and fertility of 2n pollen in Camellia oleifera” (Central South University of Forestry and Technology, priority 2024, dated 2024)

Columns and labels:
[1] = test system: Camellia oleifera 'Huaxin' 2n pollen; assay: 2n pollen yield (occurrence frequency) after precursor application and 45° C. high-temperature treatment of flower branches; format: in vivo
Protocol: (§1) After the high-temperature treatment was released, Camellia oleifera grew naturally until anthers were pollinated. Pollen of each treatment was collected, and a temporary smear of the pollen was made by an aceto-carmine staining method and then photographed by an OlympusDP70 optical microscope; and a diameter of pollen in a temporary smear of each treatment was measured by Image J software, and a yield and a fertility rate of 2n pollen were counted.
(§2) Pollen stained red by aceto-carmine was counted as fertile pollen, and pollen not stained red by aceto-carmine was counted as infertile pollen (as shown in FIG. 3).
(§3) An occurrence frequency of 2n pollen was a ratio of an amount of 2n pollen to a total amount of pollen observed, and a fertility rate of 2n pollen was a ratio of an amount of fertile 2n pollen to a total amount of 2n pollen observed. […] When no high-temperature treatment is applied, an occurrence frequency of 2n pollen is 0.9%, and a fertility rate is 100%. • 2. […] Treatment conditions for 2n pollen in Camellia oleifera in the present disclosure: a leptotene stage to a pachytene stage of pollen mother cells, a style length: less than 2.57 mm, an induction temperature: 43° C. to 49° C., and an induction time: 3 h to 6 h.
(§4) Flower branches with a style length developing to 1.97 mm<L≤2.27 mm and pollen mother cells at a leptotene stage to a pachytene stage were selected as target flower branches, and DMTU solutions with different concentrations were applied to the target flower branches, respectively; and a flower branch not treated with a DMTU solution was adopted as a control.
(§5) The concentrations of the DMTU solutions were 1 mg/L, 5 mg/L, 10 mg/L, 15 mg/L, 20 mg/L, and 25 mg/L, respectively. Preparation method of a DMTU solution: DMTU was first dissolved with an appropriate amount of alcohol, and then water was added to a required concentration.
(§6) The above DMTU solutions with different concentrations each were sprayed on a flower branch, where a DMTU solution was evenly sprayed on a flower branch by a sprayer until there were condensed water droplets flowing down from leaves or flower buds; and each treatment was numbered and recorded (as shown in Table 3).
(§7) After each DMTU solution was applied, in order to avoid rapid evaporation of a solution on a leaf surface due to a high-temperature treatment, the whole flower branch was wrapped with a plastic film, and then the non-ex vivo tree branch bud heating device in the authorized patent (patent ZL200610113448.X) was immediately used to apply a 45° C. high-temperature treatment to each target flower branch for 4 h, namely, a high-temperature doubling treatment. A doubling treatment method was the same as the doubling treatment method in step 1.2 of Example 1.
(§8) After a high-temperature treatment was conducted for 4 h, a heating bag and a plastic film were removed to release the high-temperature treatment, and Camellia oleifera was allowed to grow naturally until anthers were pollinated. Pollen of each treatment was collected, and a temporary smear of the pollen was made by an aceto-carmine staining method and then photographed by an Olympus DP70 optical microscope; and a diameter of pollen was measured by Image J software, and an occurrence frequency and a fertility rate of 2n pollen were counted.
(§9) The above reagents were applied through spraying on a flower branch and injection into a flower bud. The spraying on a flower branch was as follows: a precursor solution was evenly sprayed on the flower branch by a sprayer until there were condensed water droplets flowing down from leaves or flower buds. The injection into a flower bud was as follows: a precursor solution was injected into the flower bud by a 5 mL syringe (0.5×20 mm injection needle) through a scale gap at a top of the flower bud until there were water droplets overflowing a surface of the flower bud. […]

[2] = test system: Camellia oleifera 'Huaxin' 2n pollen; assay: 2n pollen fertility rate (aceto-carmine staining) after precursor application and 45° C. high-temperature treatment of flower branches; format: in vivo; conditions: for 2n pollen fertility rate (%): 45° C.; for k1 (K1/4, mean 2n pollen fertility rate at level 1): level 1: DMTU 5 mg/L, mannitol 0.1 g/L, ascorbic acid 0.5 mg/L, brassinolide 2.0 mg/L, sucrose 5 g/L; for k2 (K2/4, mean 2n pollen fertility rate at level 2): level 2: DMTU 10 mg/L, ascorbic acid 1.0 mg/L, sucrose 10 g/L; for k3 (K3/4, mean 2n pollen fertility rate at level 3): level 3: DMTU 15 mg/L, mannitol 1.0 g/L, brassinolide 6.0 mg/L, sucrose 15 g/L; for k4 (K4/4, mean 2n pollen fertility rate at level 4): level 4: DMTU 20 mg/L, mannitol 2.0 g/L, ascorbic acid 2.0 mg/L, brassinolide 8.0 mg/L, sucrose 30 g/L
Protocol: as §1, §2, §3, §4, §5, §6, §7, §8, §9

[3] = Injection into a flower bud, DMTU 10 mg/L, mannitol 0.5 g/L, ascorbic acid 1.5 mg/L, brassinolide 4.0 mg/L, 4 h (Example 2B)
[4] = Spraying on a flower branch, DMTU 10 mg/L, mannitol 0.5 g/L, ascorbic acid 1.5 mg/L, brassinolide 4.0 mg/L, 4 h (Example 2B)
[5] = mannitol 0.5 g/L, brassinolide 4.0 mg/L, in %
[6] = DMTU solution 1 mg/L sprayed on flower branch, 4 h
[7] = DMTU solution 5 mg/L sprayed on flower branch, 4 h
[8] = DMTU solution 10 mg/L sprayed on flower branch, 4 h (Example 2A)
[9] = DMTU solution 15 mg/L sprayed on flower branch, 4 h
[10] = DMTU solution 20 mg/L sprayed on flower branch, 4 h
[11] = DMTU solution 25 mg/L sprayed on flower branch, 4 h

## O=C1O[C@H]([C@@H](O)CO)C(O)=C1O [Ascorbic acid, ascorbic acid]
[1]; [3]
  2n pollen yield (%): 10.05%
[1]; [4]
  2n pollen yield (%): 9.76%
[2]; [3]
  2n pollen fertility rate (%): 81.26%
[2]; [4]
  2n pollen fertility rate (%): 79.58%
[2]
  k1 (K1/4, mean 2n pollen fertility rate at level 1): 80.47
  k4 (K4/4, mean 2n pollen fertility rate at level 4): 80.24
[2]; mannitol 0.5 g/L, brassinolide 4.0 mg/L
  k2 (K2/4, mean 2n pollen fertility rate at level 2): 83.42
[2]; ascorbic acid 1.5 mg/L
  k3 (K3/4, mean 2n pollen fertility rate at level 3): 81.04

## CC(C)[C@H](C)[C@@H](O)[C@H](O)[C@@H](C)[C@H]1CC[C@H]2[C@@H]3COC(=O)[C@H]4C[C@H](O)[C@H](O)C[C@]4(C)[C@H]3CC[C@]12C [Brassinolide, brassinolide]
[1]; [3]
  2n pollen yield (%): 11.03%
[1]; [4]
  2n pollen yield (%): 10.83%
[2]; [3]
  2n pollen fertility rate (%): 84.13%
[2]; [4]
  2n pollen fertility rate (%): 82.58%
[2]; in %
  k1 (K1/4, mean 2n pollen fertility rate at level 1): 79.88
  k4 (K4/4, mean 2n pollen fertility rate at level 4): 80.36
[2]; [5]
  k2 (K2/4, mean 2n pollen fertility rate at level 2): 82.98
[2]; ascorbic acid 1.5 mg/L, in %
  k3 (K3/4, mean 2n pollen fertility rate at level 3): 81.95

## CNC(=S)NC [DMTU, N,N′-Dimethylthiourea]
[1]; [6]
  2n pollen yield (%): 9.17%
[1]; [7]
  2n pollen yield (%): 9.81%
[1]; [8]
  2n pollen yield (%): 11.52%
[1]; [9]
  2n pollen yield (%): 10.83%
[1]; [10]
  2n pollen yield (%): 10.15%
[1]; [11]
  2n pollen yield (%): 9.05%
[1]; [3]
  2n pollen yield (%): 12.17%
[1]; [4]
  2n pollen yield (%): 11.52%
[2]; 5 mg/L, 10 mg/L, 15 mg/L and 20 mg/L DMTU solutions sprayed on flower branches
  2n pollen yields and fertility rates compared with the control: significantly improved
[2]; [6]
  2n pollen fertility rate (%): 64.25%
[2]; [7]
  2n pollen fertility rate (%): 75.94%
[2]; [8]
  2n pollen fertility rate (%): 86.23%
[2]; [9]
  2n pollen fertility rate (%): 82.46%
[2]; [10]
  2n pollen fertility rate (%): 78.61%
[2]; [11]
  2n pollen fertility rate (%): 64.43%
[2]; [3]
  2n pollen fertility rate (%): 90.14%
[2]; [4]
  2n pollen fertility rate (%): 86.97%
[2]; in %
  k1 (K1/4, mean 2n pollen fertility rate at level 1): 78.23
  k4 (K4/4, mean 2n pollen fertility rate at level 4): 78.28
[2]; [5]
  k2 (K2/4, mean 2n pollen fertility rate at level 2): 87.54
[2]; ascorbic acid 1.5 mg/L, in %
  k3 (K3/4, mean 2n pollen fertility rate at level 3): 81.12

## OC[C@H]1O[C@@](CO)(O[C@H]2O[C@H](CO)[C@@H](O)[C@H](O)[C@H]2O)[C@@H](O)[C@@H]1O [Sucrose, sucrose]
[2]; in %
  k1 (K1/4, mean 2n pollen fertility rate at level 1): 80.87
  k4 (K4/4, mean 2n pollen fertility rate at level 4): 80.44
[2]; [5]
  k2 (K2/4, mean 2n pollen fertility rate at level 2): 80.95
[2]; ascorbic acid 1.5 mg/L, in %
  k3 (K3/4, mean 2n pollen fertility rate at level 3): 82.91

## OC[C@@H](O)[C@@H](O)[C@H](O)[C@H](O)CO [Mannitol, mannitol]
[1]; [3]
  2n pollen yield (%): 9.68%
[1]; [4]
  2n pollen yield (%): 9.81%
[2]; [3]
  2n pollen fertility rate (%): 77.89%
[2]; [4]
  2n pollen fertility rate (%): 75.94%
[2]; in %
  k1 (K1/4, mean 2n pollen fertility rate at level 1): 81.64
  k4 (K4/4, mean 2n pollen fertility rate at level 4): 79.59
[2]; [5]
  k2 (K2/4, mean 2n pollen fertility rate at level 2): 82.95
[2]; ascorbic acid 1.5 mg/L, in %
  k3 (K3/4, mean 2n pollen fertility rate at level 3): 80.98
